# Results reported in ChEMBL document CHEMBL1141478, “Lysianadioic acid, a carboxypeptidase B inhibitor from Lysiana subfalcata” (Bioorg Med Chem Lett, 2008).
# Biological target: T1, Carboxypeptidase B (Homo sapiens, UniProt P15086)
# T1 sequence (P15086 whole entry): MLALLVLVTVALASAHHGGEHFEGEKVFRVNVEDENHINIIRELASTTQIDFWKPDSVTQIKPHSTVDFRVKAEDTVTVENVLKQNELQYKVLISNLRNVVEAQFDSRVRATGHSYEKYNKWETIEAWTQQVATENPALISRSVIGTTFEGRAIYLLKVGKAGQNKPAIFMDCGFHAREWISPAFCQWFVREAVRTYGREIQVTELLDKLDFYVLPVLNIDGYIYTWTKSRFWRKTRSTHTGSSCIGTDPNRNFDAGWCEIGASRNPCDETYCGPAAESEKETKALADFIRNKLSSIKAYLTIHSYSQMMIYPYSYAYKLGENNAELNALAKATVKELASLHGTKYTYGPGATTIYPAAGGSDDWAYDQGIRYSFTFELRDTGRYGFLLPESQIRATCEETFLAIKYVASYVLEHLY
# Experiment: Inhibition of carboxypeptidase B
compound,measurement,value
N=C(N)NCC/C=C(/CC(=O)O)C(=O)O [LYSIANADIOIC ACID],IC50,360 nM
